From patent publication US20230019491A1, “PYRIMIDINE TBK/IKKe INHIBITOR COMPOUNDS AND USES THEREOF” (Merck Patent GmbH, priority 2017, published 2023)
Structures can show the parent of a compound that is named as a salt.

What was measured:
TBK1 = target: T1, TBK1 (Homo sapiens, UniProt Q9UHD2); experiment: TBK biochemical assay; conditions: 10 point 1:4 dose response, 30 uM top concentration, 90 min at 25° C., LabChip EZ Reader II; read-out: TBK1_IC50
T1 sequence (Q9UHD2 1-729): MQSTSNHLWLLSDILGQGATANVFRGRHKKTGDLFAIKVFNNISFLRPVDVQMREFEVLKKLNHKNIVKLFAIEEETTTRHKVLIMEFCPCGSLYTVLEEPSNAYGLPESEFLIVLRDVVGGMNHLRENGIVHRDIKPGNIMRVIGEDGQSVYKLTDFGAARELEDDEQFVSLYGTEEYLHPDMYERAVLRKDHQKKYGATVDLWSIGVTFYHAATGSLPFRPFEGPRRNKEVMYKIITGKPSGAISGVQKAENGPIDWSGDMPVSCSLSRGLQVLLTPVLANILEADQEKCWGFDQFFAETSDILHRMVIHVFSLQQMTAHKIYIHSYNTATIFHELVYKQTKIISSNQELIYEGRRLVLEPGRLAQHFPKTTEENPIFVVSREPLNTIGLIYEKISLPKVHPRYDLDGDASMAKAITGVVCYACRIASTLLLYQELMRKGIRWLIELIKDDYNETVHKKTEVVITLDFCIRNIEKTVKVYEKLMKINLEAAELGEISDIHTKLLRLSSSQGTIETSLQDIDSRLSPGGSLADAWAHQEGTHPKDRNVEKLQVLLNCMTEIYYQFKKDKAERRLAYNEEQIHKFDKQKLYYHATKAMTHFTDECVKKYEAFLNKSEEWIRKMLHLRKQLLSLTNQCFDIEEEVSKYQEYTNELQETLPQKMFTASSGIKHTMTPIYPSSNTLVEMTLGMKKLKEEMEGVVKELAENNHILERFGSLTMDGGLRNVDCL
Summary of the method: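 Read-out was a Caliper LabChip mobility-shift assay, run after a 90-min, 25 °C reaction of TBK1 with substrate and compounds, quenched with stop buffer. Control wells received staurosporine at 10 uM final.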

IKKε = target: T2, IKKε (Homo sapiens, UniProt Q14164); experiment: IKKε biochemical assay; conditions: 10 point 1:4 dose response, 30 uM top concentration, 90 min at 25° C., LabChip EZ Reader II; read-out: IKKε_IC50
T2 sequence (Q14164 1-716): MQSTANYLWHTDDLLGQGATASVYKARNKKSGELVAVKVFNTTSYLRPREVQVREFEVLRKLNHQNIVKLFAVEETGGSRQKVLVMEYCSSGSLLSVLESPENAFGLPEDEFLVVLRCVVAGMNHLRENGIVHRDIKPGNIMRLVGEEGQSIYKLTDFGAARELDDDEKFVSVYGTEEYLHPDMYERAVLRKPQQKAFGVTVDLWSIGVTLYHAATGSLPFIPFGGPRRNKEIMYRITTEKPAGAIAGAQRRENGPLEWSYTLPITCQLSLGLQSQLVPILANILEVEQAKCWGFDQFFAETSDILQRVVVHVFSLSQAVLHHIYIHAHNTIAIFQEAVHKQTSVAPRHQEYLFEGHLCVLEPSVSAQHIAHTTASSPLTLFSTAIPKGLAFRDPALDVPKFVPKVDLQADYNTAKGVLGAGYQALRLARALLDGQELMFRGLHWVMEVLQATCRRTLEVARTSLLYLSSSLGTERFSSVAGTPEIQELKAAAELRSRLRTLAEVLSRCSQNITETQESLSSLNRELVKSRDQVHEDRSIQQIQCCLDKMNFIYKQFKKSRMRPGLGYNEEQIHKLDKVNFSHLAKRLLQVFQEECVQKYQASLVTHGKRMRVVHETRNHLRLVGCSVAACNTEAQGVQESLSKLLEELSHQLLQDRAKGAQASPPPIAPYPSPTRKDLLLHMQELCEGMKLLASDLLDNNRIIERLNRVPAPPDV
Summary of the method: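 Mobility-shift LabChip read-out followed a 90 min, 25° C. reaction of IKKε with substrate and test compound, with DMSO held at 1% final. Reactions were ended with stop buffer. Wells with 10 uM final staurosporine defined complete inhibition, and DMSO-only wells the uninhibited level.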

SMILES	IC50 (TBK1) [nM]	IC50 (IKKε) [nM]
COc1nc(Nc2nccc(-c3ccc(OC4CCOCC4)c(C#N)n3)n2)ccc1C1CCN(C)CC1 [Example 46, 6-(2-[[6-methoxy-5-(1-methylpiperidin-4-yl)pyridin-2-yl]amino]pyrimidin-4-yl)-3-(oxan-4-yloxy)pyridine-2-carbonitrile]	< 100	< 100
N#Cc1cc(-c2ccnc(Nc3ccccc3)n2)ccc1OC1CCN(C(=O)[C@@H](O)CO)CC1(F)F (stereo partly drawn) [Example 210, 2-[1-((S)-2,3-Dihydroxy-propionyl)-3,3-difluoro-piperidin-4-yloxy]-5-(2-phenylamino-pyrimidin-4-yl)-benzonitrile]	< 100	< 100
COc1nc(Nc2nccc(-c3ccc(O[C@H]4CCN(C(=O)CO)C[C@H]4F)c(C#N)c3)n2)ccc1C(=O)N(C)C [Example 75, 6-[[4-(3-cyano-4-[[(3R,4S)-3-fluoro-1-(2-hydroxyacetyl)piperidin-4-yl]oxy]phenyl)pyrimidin-2-yl]amino]-2-methoxy-N,N-dimethylpyridine-3-carboxamide hydrochloride]	< 100	< 100
COc1nc(Nc2nccc(-c3ccc(OC4CN(C(=O)[C@H](C)O)C4)c(C#N)c3)n2)ccc1N1CCN(C2COC2)CC1 [Example 175, 2-([1-[(2S)-2-hydroxypropanoyl]azetidin-3-yl]oxy)-5-[2-([6-methoxy-5-[4-(oxetan-3-yl)piperazin-1-yl]pyridin-2-yl]amino)pyrimidin-4-yl]benzonitrile]	100 to 1000	100 to 1000
C[C@@H](O)C(=O)N1CCC(Oc2ccc(-c3ccnc(Nc4ccc(C5CCN(C)CC5)cc4)n3)cc2C#N)C(F)(F)C1 (stereo partly drawn) [Example 145, 2-([3,3-difluoro-1-[(2R)-2-hydroxypropanoyl]piperidin-4-yl]oxy)-5-(2-[[4-(1-methylpiperidin-4-yl)phenyl]amino]pyrimidin-4-yl)benzonitrile]	< 100	< 100
COc1nc(Nc2nccc(-c3ccc(OC4CCOCC4)c(C#N)c3)n2)ccc1N1CCN(C)CC1 [Example 33, 5-(2-(6-methoxy-5-(4-methylpiperazin-1-yl)pyridin-2-ylamino)pyrimidin-4-yl)-2-(tetrahydro-2H-pyran-4-yloxy)benzonitrile]	< 100	< 100
COc1nc(Nc2nccc(-c3ccc(OC4CCOCC4)c(C#N)c3)n2)ccc1C(=O)N(C)C [Example 1, 6-([4-[3-cyano-4-(oxan-4-yloxy)phenyl]pyrimidin-2-yl]amino)-2-methoxy-N,N-dimethylpyridine-3-carboxamide]	< 100	< 100
COc1nc(Nc2nccc(-c3ccc(OC4CN(C(=O)[C@@H](C)O)C4)c(C#N)c3)n2)ccc1N1CCN(C2COC2)CC1 [Example 176, 2-([1-[(2R)-2-hydroxypropanoyl]azetidin-3-yl]oxy)-5-[2-([6-methoxy-5-[4-(oxetan-3-yl)piperazin-1-yl]pyridin-2-yl]amino)pyrimidin-4-yl]benzonitrile]	100 to 1000	1000 to 5000
COc1nc(Nc2nccc(-c3ccc(OC4CNC4)c(C#N)c3)n2)ccc1N1CCN(C2COC2)CC1 [Example 174, 2-(azetidin-3-yloxy)-5-[2-([6-methoxy-5-[4-(oxetan-3-yl)piperazin-1-yl]pyridin-2-yl]amino)pyrimidin-4-yl]benzonitrile]	< 100	< 100
COc1nc(Nc2nccc(-c3ccc(OC4CCNCC4C)c(C#N)c3)n2)ccc1N1CCN(C2COC2)CC1 (centres unmarked) [Example 270, 5-{2-[6-Methoxy-5-(4-oxetan-3-yl-piperazin-1-yl)-pyridin-2-ylamino]-pyrimidin-4-yl}-2-(3-methyl-piperidin-4-yloxy)-benzonitrile]	< 100	< 100
COc1nc(Nc2nccc(-c3ccc(OC4CCN(C(=O)[C@H](C)O)CC4(F)F)c(C#N)c3)n2)ccc1N1CCN(C)CC1 (stereo partly drawn) [Example 107, 2-[3,3-Difluoro-1-((S)-2-hydroxy-propionyl)-piperidin-4-yloxy]-5-{2-[6-methoxy-5-(4-methyl-piperazin-1-yl)-pyridin-2-ylamino]-pyrimidin-4-yl}-benzonitrile]	< 100	< 100
COc1nc(Nc2nccc(-c3ccc(OC4CCN(C(=O)[C@H](C)O)CC4(F)F)c(C#N)c3)n2)ccc1N1CCN(C)[C@@H](C)C1 (stereo partly drawn) [Example 105, 2-[3,3-Difluoro-1-((S)-2-hydroxy-propionyl)-piperidin-4-yloxy]-5-{2-[5-((S)-3,4-dimethyl-piperazin-1-yl)-6-methoxy-pyridin-2-ylamino]-pyrimidin-4-yl}-benzonitrile]	< 100	< 100
COc1nc(Nc2nccc(-c3ccc(OC4CCN(C(=O)[C@@H]5CC5(F)F)CC4(F)F)c(C#N)c3)n2)ccc1N1CCN(C2COC2)CC1 (stereo partly drawn) [Example 255, 2-[1-((S)-2,2-Difluoro-cyclopropanecarbonyl)-3,3-difluoro-piperidin-4-yloxy]-5-{2-[6-methoxy-5-(4-oxetan-3-yl-piperazin-1-yl)-pyridin-2-ylamino]-pyrimidin-4-yl}-benzonitrile]	< 100	< 100

Other lines, results leading:

IC50 (TBK1) [nM]	IC50 (IKKε) [nM]	SMILES
< 100	< 100	COc1nc(Nc2nccc(-c3ccc(OC4CCOCC4)c(C#N)c3)n2)ccc1C(=O)NC[C@H](O)CO [Example 4, 6-{4-[3-Cyano-4-(tetrahydro-pyran-4-yloxy)-phenyl]-pyrimidin-2-ylamino}-N-((S)-23-dihydroxy-propyl)-2-methoxy-nicotinamide]
< 100	< 100	COc1nc(Nc2ncc(F)c(-c3ccc(OC4CCN(C(=O)[C@H](C)O)CC4(F)F)c(C#N)c3)n2)ccc1N1CCN(C2COC2)CC1 (stereo partly drawn) [Example 292, 2-({3,3-difluoro-1-[(2S)-2-hydroxypropanoyl]piperidin-4-yl}oxy)-5-[5-fluoro-2-({6-methoxy-5-[4-(oxetan-3-yl)piperazin-1-yl]pyridin-2-yl}amino)pyrimidin-4-yl]benzonitrile]
< 100	< 100	Cc1nc(C(=O)N2CCC(Oc3ccc(-c4ccnc(Nc5ccc(N6CCN(C7COC7)CC6)cc5)n4)cc3C#N)CC2)c[nH]1 [Example 274, 2-[[1-(2-methyl-1H-imidazole-4-carbonyl)piperidin-4-yl]oxy]-5-[2-([4-[4-(oxetan-3-yl)piperazin-1-yl]phenyl]amino)pyrimidin-4-yl]benzonitrile]
< 100	100 to 1000	COc1nc(Nc2nccc(-c3ccc(O[C@@H]4CCN(C(=O)[C@H](C)O)C[C@@H]4F)c(C#N)c3)n2)ccc1N1CCN(C2COC2)CC1 [Example 331, 2-[[(3S,4R)-3-fluoro-1-[(2S)-2-hydroxypropanoyl]piperidin-4-yl]oxy]-5-[2-([6-methoxy-5-[4-(oxetan-3-yl)piperazin-1-yl]pyridin-2-yl]amino)pyrimidin-4-yl]benzonitrile]
< 100	< 100	COc1nc(Nc2nccc(-c3ccc(OC4CCN(C(=O)[C@H](C)O)CC4C)c(C#N)c3)n2)ccc1N1CCN(C2COC2)CC1 (stereo partly drawn) [Example 271, 2-[1-((S)-2-Hydroxy-propionyl)-3-methyl-piperidin-4-yloxy]-5-{2-[6-methoxy-5-(4-oxetan-3-yl-piperazin-1-yl)-pyridin-2-ylamino]-pyrimidin-4-yl}-benzonitrile]
< 100	< 100	C[C@H](O)C(=O)N1CCC(Oc2ccc(-c3ccnc(Nc4cccnc4)n3)cc2C#N)C(F)(F)C1 (some centres unmarked) [Example 205]
